pIC50: −log10 of the molar value. Calls of active or inactive are those of the source. No cut-off for these calls is given here.
How the values were obtained:
[1] = Cytotoxicity against human ALL5 cells after 120 hrs by MTT method; type: functional, cell-based; details: ALL5, 120 h
HeLa = assay: Cytotoxicity against human HeLa cells up to 10 uM after 72 hrs by MTT method; type: functional, cell-based
[2] = Cell cycle arrest in human ALL5 cells assessed as accumulation at subG1 phase at 25 uM after 48 hrs by propidium iodide staining based flow cytometric analysis (reference value: 3.44 %); type: functional
[3] = Cell cycle arrest in human ALL5 cells assessed as accumulation at G1 phase at 25 uM after 48 hrs by propidium iodide staining based flow cytometric analysis (reference value: 70.5 %); type: functional
[4] = Cell cycle arrest in human ALL5 cells assessed as accumulation at S phase at 25 uM after 48 hrs by propidium iodide staining based flow cytometric analysis (reference value: 11.7 %); type: functional
[5] = Cell cycle arrest in human ALL5 cells assessed as accumulation at G2 phase at 25 uM after 48 hrs by propidium iodide staining based flow cytometric analysis (reference value: 13.6 %); type: functional
[6] = Cell cycle arrest in human ALL5 cells assessed as accumulation at subG1 phase at 25 uM after 96 hrs by propidium iodide staining based flow cytometric analysis (reference value: 3.44 %); type: functional
[7] = Cell cycle arrest in human ALL5 cells assessed as accumulation at G1 phase at 25 uM after 96 hrs by propidium iodide staining based flow cytometric analysis (reference value: 70.5 %); type: functional
[8] = Cell cycle arrest in human ALL5 cells assessed as accumulation at S phase at 25 uM after 96 hrs by propidium iodide staining based flow cytometric analysis (reference value: 11.7 %); type: functional
[9] = Cell cycle arrest in human ALL5 cells assessed as accumulation at G2 phase at 25 uM after 96 hrs by propidium iodide staining based flow cytometric analysis (reference value: 13.6 %); type: functional
[10] = Cell cycle arrest in human ALL5 cells assessed as accumulation at subG1 phase at 25 uM after 120 hrs by propidium iodide staining based flow cytometric analysis (reference value: 3.44 %); type: functional
[11] = Cell cycle arrest in human ALL5 cells assessed as accumulation at G1 phase at 25 uM after 120 hrs by propidium iodide staining based flow cytometric analysis (reference value: 70.5 %); type: functional
[12] = Cell cycle arrest in human ALL5 cells assessed as accumulation at S phase at 25 uM after 120 hrs by propidium iodide staining based flow cytometric analysis (reference value: 11.7 %); type: functional
[13] = Cell cycle arrest in human ALL5 cells assessed as accumulation at G2 phase at 25 uM after 120 hrs by propidium iodide staining based flow cytometric analysis (reference value: 13.6 %); type: functional
ALL5 = assay: Increase in p53 expression in human ALL5 cells at 25 uM after 96 hrs by Western blot analysis; type: functional, cell-based
[14] = Cell cycle arrest in human ALL5 cells assessed as accumulation at subG1 phase at 25 uM after 96 hrs in presence of CDK4/6 inhibitor palbociclib by propidium iodide staining based flow cytometric analysis (reference value: 1.47%); type: functional
[15] = Cell cycle arrest in human ALL5 cells assessed as accumulation at G1 phase at 25 uM after 96 hrs in presence of CDK4/6 inhibitor palbociclib by propidium iodide staining based flow cytometric analysis (reference value: 97.8%); type: functional
[16] = Cell cycle arrest in human ALL5 cells assessed as accumulation at S phase at 25 uM after 96 hrs in presence of CDK4/6 inhibitor palbociclib by propidium iodide staining based flow cytometric analysis (reference value: 0.07%); type: functional
[17] = Cell cycle arrest in human ALL5 cells assessed as accumulation at G2 phase at 25 uM after 96 hrs in presence of CDK4/6 inhibitor palbociclib by propidium iodide staining based flow cytometric analysis (reference value: 0.64%); type: functional
[18] = Cell cycle arrest in human ALL5 cells assessed as accumulation at subG1 phase at 1 uM after 72 hrs by propidium iodide staining based flow cytometric analysis (reference value: 0.54 %); type: functional
[19] = Cell cycle arrest in human ALL5 cells assessed as accumulation at G1 phase at 1 uM after 72 hrs by propidium iodide staining based flow cytometric analysis (reference value: 64.4%); type: functional
[20] = Cell cycle arrest in human ALL5 cells assessed as accumulation at S phase at 1 uM after 72 hrs by propidium iodide staining based flow cytometric analysis (reference value: 15.2%); type: functional
[21] = Cell cycle arrest in human ALL5 cells assessed as accumulation at G2 phase at 1 uM after 72 hrs by propidium iodide staining based flow cytometric analysis (reference value: 19.1%); type: functional

With `Oc1ccc(/C=C/c2cc(O)cc(O)c2)cc1` [RESVERATROL] the pIC50 [1] was 4.98.
Work on `O=C(CCl)Oc1ccc(/C=C/c2cc(OC(=O)CCl)cc(OC(=O)CCl)c2)cc1` yielded a pIC50 [1] of 4.98 to 5.00.
In the case of `COc1cc(C(=O)Oc2ccc(/C=C/c3cc(OC(=O)c4cc(OC)c(OC)c(OC)c4)cc(OC(=O)c4cc(OC)c(OC)c(OC)c4)c3)cc2)cc(OC)c1OC`, the pIC50 [1] was < 5.00.
In the case of `CC(C)CC(=O)Oc1ccc(/C=C/c2cc(OC(=O)CC(C)C)cc(OC(=O)CC(C)C)c2)cc1`, the Activity (HeLa) was “inactive”, the Activity [2] was 16.4% and the Activity [3] was 66.4%. It also gave an Activity [4] of 9.6%, an Activity [5] of 6.99% and an Activity [6] of 59.4%. For the same compound, the Activity [7] was 32.5%, the Activity [8] was 5.14% and the Activity [9] was 2.2%. The Activity [10] was 69.9%, the Activity [11] was 24.5% and the Activity [12] was 4.32%. For the same compound, the Activity [13] was 0.86%, the Activity (ALL5) was “Active” and the Activity [14] was 7.6%. It also gave an Activity [15] of 91.6%, an Activity [16] of 0.28% and an Activity [17] of 0.46%. It also gave a pIC50 [1] of 5.31.
In the case of `CCCCCCCCCC(=O)Oc1ccc(/C=C/c2cc(OC(=O)CCCCCCCCC)cc(OC(=O)CCCCCCCCC)c2)cc1`, the pIC50 [1] was < 5.00.
Work on `O=C(/C=C/c1cccc(O)c1)Oc1ccc(/C=C/c2cc(OC(=O)/C=C/c3cccc(O)c3)cc(OC(=O)/C=C/c3cccc(O)c3)c2)cc1` yielded a pIC50 [1] of 5.00.
For `COc1ccc(/C=C/C(=O)Oc2ccc(/C=C/c3cc(OC(=O)/C=C/c4ccc(OC)c(OC)c4)cc(OC(=O)/C=C/c4ccc(OC)c(OC)c4)c3)cc2)cc1OC`, the pIC50 [1] was < 5.00.
`CC(=O)c1c(C)c2cnc(Nc3ccc(N4CCNCC4)cn3)nc2n(C2CCCC2)c1=O` [PALBOCICLIB] gave an Activity [18] of 0.76%, an Activity [19] of 98.1% and an Activity [20] of 0.29%. It also gave an Activity [21] of 0.8%.
For `COc1cc(/C=C/C(=O)Oc2ccc(/C=C/c3cc(OC(=O)/C=C/c4cc(OC)c(O)c(OC)c4)cc(OC(=O)/C=C/c4cc(OC)c(O)c(OC)c4)c3)cc2)cc(OC)c1O`, the pIC50 [1] was < 5.00.

Reference: ChEMBL document CHEMBL4020771, “Activity of resveratrol triesters against primary acute lymphoblastic leukemia cells” (Bioorg Med Chem Lett, 2017)
